The values that follow come from patent US9598415B2, “Compounds as modulators of RORγ” (Boehringer Ingelheim International GmbH, priority 2014, dated 2017).

The structures appear in SMILES notation. pIC50: −log10 of the molar value.

In this experiment the target is RORγ (Homo sapiens (Human), UniProt P51449). Nature of the experiment: Reporter Gene Assay (RGA): inhibition of RORγ transactivation of a luciferase reporter. Conditions: transiently transfected HEK 293 cells (Gal4DBD hRORC LBD), 20-24 h incubation. Type of experiment: cell-based.
Chain of RORγ (P51449 269-508): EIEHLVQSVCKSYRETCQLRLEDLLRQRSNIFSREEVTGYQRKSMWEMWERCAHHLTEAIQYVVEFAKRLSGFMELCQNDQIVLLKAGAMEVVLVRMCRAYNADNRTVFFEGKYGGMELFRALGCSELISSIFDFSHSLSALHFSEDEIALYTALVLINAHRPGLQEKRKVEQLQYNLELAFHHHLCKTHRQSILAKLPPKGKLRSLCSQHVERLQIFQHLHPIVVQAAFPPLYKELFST

Take `CNS(=O)(=O)c1ccc(CNc2nc3cnc(-c4c(C)ncnc4C4CC4)nc3n([C@@H](C)C3CC3)c2=O)cc1` [Example 134]: the pIC50 (as a rule, −log10 of the IC50, conventionally taken in molar units) is 6.40.

With `CCS(=O)(=O)c1ccc(CNc2nc3cnc(-c4c(C)ncnc4C4CC4)nc3n([C@@H]3C[C@H]4CC[C@@H]3C4)c2=O)nc1` [Example 220], the pIC50 was 6.41. The result for `CCS(=O)(=O)c1ccc(CNc2nc3cnc(-c4c(OC)ncnc4C4CC4)nc3n(C(C)C)c2=O)cc1` [Example 143] reads 6.87.
